Results from patent US5610160A, “Topical 5-fluorouracil prodrug composition and method” (priority 1994, dated 1997).
Converted amounts (≈) assume the structure as drawn. Where two headings read alike, the source gives them in different places.

How the values were obtained:
[1] = Solubility of prodrug in isopropyl myristate (IPM); details: for solubility: isopropyl myristate, organic solvent or mixture; for CIPM, equivalent mg of 5FU/ml: IPM, 23 ± 1° C., value in parentheses
Method: The results from the determination of the physicochemical properties are recorded in the tables as CIPM (the saturated solubility of the prodrug in the isopropyl myristate (IPM) vehicle/formulation in which the prodrug was applied to the mouse skins), K (the partition coefficients of the prodrug between IPM and a pH 4.0 acetate buffer) and Cw (the solubility of the prodrug in pH 4.0 acetate buffer calculated from the partition coefficient and the IPM solubility).

[2] = shake-flask, brief shaking, IPM phase analyzed immediately; details: 23 ± 1 °C
[3] = Diffusion cell experiments: delivery of 5-FU through hairless mouse skin; type: in vitro ADME; details: for Ji, flux of 5-FU through the skin: from suspensions of prodrugs in IPM, hairless mouse skin; for Cs, amount of 5-FU in the skin: leached from hairless mouse skin in 24 hours subsequent to application of prodrug in vehicle for 48 hours; for Jj, flux of theophylline through the skin after application of the prodrug/formulation (relative damage): theophylline from suspension in PG
Method: The diffusion cell experiments were conducted as described by Sloan et al in J. Invest.
^b Flux in mg/cm^2 hour of 5FU from suspensions of prodrugs in
^c Amount of 5FU in mg leached from hairless mouse skin in 24 hours
subsequent to application of prodrug in vehicle for 48 hours.
^d Flux in mg/cm^2 hour of theophylline from suspension in PG.

[4] = Partition coefficient between IPM and pH 4.0 acetate buffer; type: physicochemical; details: 23 ± 1° C.
Source text: ^a Partition coefficient between IPM and pH 4.0 acetate buffer at 23

[5] = 22° C., cited from earlier work
not told = details: 22 °C; cited from earlier work
[6] = 37° C., 0.05 M phosphate buffer pH 7.4, cited from earlier work
[7] = 22° C., cited from earlier work; remark: listed apart in the source
[8] = 37° C., 80% human plasma, cited from earlier work
[9] = J. Pharm. Sci. 75, 522, Buur et al (1986), compound 11 from Int. J. Pharm. 36, 41 (1987)
[10] = Buur et al (1986), compound 11 from Buur et al (1987)
[11] = Int. J. Pharm. 21, 349, Buur et al (1984)

CIPM, equivalent mg of 5FU/ml [1] | Compound | solubility [1] [µg/mL] | log partition isopropyl myristate / pH 4.0 acetate buffer [2] [concentration ratio] | Ji, flux of 5-FU through the skin [3] [mg/cm^2 hour] | Cs, amount of 5-FU in the skin [3] [mg] | Jj, flux of theophylline through the skin after application of the prodrug/formulation (relative damage) [3] [mg/cm^2 hour] | K, partition coefficient between IPM and pH 4.0 acetate buffer [4] | log K, octanol/pH 4.0 acetate buffer [5, 9] | log partition octanol / pH 4.0 acetate buffer (not told) [log10 concentration ratio] | Half-life, Buffer [6, 10] [min] | Cw, solubility at pH 4.0 acetate buffer [7, 10] [mg/ml] | log K, octanol/pH 4.0 acetate buffer [5, 11] | Half-life, Buffer ([6]; Buur et al (1984)) [min] | Half-life, 80% Plasma ([8]; Buur et al (1984)) [min] | Cw, solubility at pH 4.0 acetate buffer ([7]; Buur et al (1984)) [mg/ml] | Half-life, 80% Plasma [8, 10] [min]
 | CCCC(=O)n1cc(F)c(=O)[nH]c1=O [Compound 3] | 3480 (≈ 17.4 mM) | 2.69 | 0.168 | 1.07 | 0.185 | 2.69 |  |  |  |  |  |  |  |  | 
 | CCCCC(=O)n1c(=O)[nH]cc(F)c1=O [Compound 16] |  | 1.65 | 0.071 | 0.38 |  | 1.65 |  |  |  |  |  |  |  |  | 
 | COC(=O)n1cc(F)c(=O)[nH]c1=O [Compound 7] | 400 (≈ 2.13 mM) | 0.026 | 0.343 | 1.08 | 0.337 | 0.026 | -0.68 | -0.68 | 190 | 23.3 |  |  |  |  | 
 | CCCOC(=O)n1cc(F)c(=O)[nH]c1=O [Compound 9] | 3280 (≈ 15.2 mM) | 0.359 | 0.294 | 0.65 | 0.300 | 0.359 |  |  |  |  |  |  |  |  | 
 | CCCCCC(=O)n1cc(F)c(=O)[nH]c1=O [Compound 5] | 25700 (≈ 113 mM) | 42.9 |  | 1.42 |  | 42.9 |  |  |  |  |  |  |  |  | 
154 equivalent mg of 5FU/ml | CCCCC(=O)n1cc(F)c(=O)n(C(=O)CCCC)c1=O [Compound 20] | 352000 (≈ 1180 mM) |  | 0.124 | 1.14 | 0.156 |  |  |  |  |  |  |  |  |  | 
81.4 equivalent mg of 5FU/ml | CCCC(=O)n1cc(F)c(=O)n(C(=O)CCC)c1=O [Compound 19] | 169000 (≈ 625 mM) |  | 0.127 | 1.54 | 0.190 |  |  |  |  |  |  |  |  |  | 
 | CC(=O)n1cc(F)c(=O)n(C(C)=O)c1=O [Compound 17] | 5600 (≈ 26.1 mM) | 2.93 | 0.291 | 1.24 | 0.282 | 2.93 |  |  |  |  |  |  |  |  | 
 | CCCCC(=O)n1cc(F)c(=O)[nH]c1=O [Compound 4] | 8390 (≈ 39.2 mM) | 11.3 | 0.133 | 2.08 | 0.144 | 11.3 |  |  |  |  |  |  |  |  | 
 | CC(=O)n1c(=O)[nH]cc(F)c1=O [Compound 13] | 74 (≈ 0.43 mM) | 0.040 | 0.575 | 1.77 | 0.282 | 0.040 |  | -0.34 |  |  | -0.34 | 43 | 4.6 | 42.8 | 
 | CCCCOC(=O)n1cc(F)c(=O)[nH]c1=O [Compound 10] | 7770 (≈ 33.8 mM) | 1.46 | 0.284 | 0.54 | 0.321 | 1.46 | 0.89 | 0.89 | 550 | 5.9 |  |  |  |  | 3.1
4.72 equivalent mg of 5FU/ml | CCCCCCCCOC(=O)n1cc(F)c(=O)[nH]c1=O [Compound 12] | 10400 (≈ 36.3 mM) |  | 0.037 | 0.41 | 0.323 |  |  |  |  |  |  |  |  |  | 
 | CC(=O)n1cc(F)c(=O)[nH]c1=O [Compound 1] | 3800 (≈ 22.1 mM) | 0.185 | 1.213 | 8.85 | 0.296 | 0.185 |  |  |  |  |  |  |  |  | 
 | CCC(=O)n1cc(F)c(=O)n(C(=O)CC)c1=O [Compound 18] | 17400 (≈ 71.8 mM) | 33.8 | 0.090 | 0.51 | 0.288 | 33.8 |  |  |  |  |  |  |  |  | 
14.4 equivalent mg of 5FU/ml | CCCCCCCC(=O)n1cc(F)c(=O)[nH]c1=O [Compound 6] | 28400 (≈ 111 mM) |  | 0.078 | 1.58 | 0.129 |  |  |  |  |  |  |  |  |  | 
 | CCC(=O)n1cc(F)c(=O)[nH]c1=O [Compound 2] | 6770 (≈ 36.4 mM) | 0.764 | 0.560 | 8.96 | 0.219 | 0.764 |  |  |  |  |  |  |  |  | 

Compound | CIPM, equivalent mg of 5FU/ml [1] | solubility [1] [µg/mL] | log partition isopropyl myristate / pH 4.0 acetate buffer [2] [concentration ratio] | Ji, flux of 5-FU through the skin [3] [mg/cm^2 hour] | Cs, amount of 5-FU in the skin [3] [mg] | Jj, flux of theophylline through the skin after application of the prodrug/formulation (relative damage) [3] [mg/cm^2 hour] | K, partition coefficient between IPM and pH 4.0 acetate buffer [4] | log K, octanol/pH 4.0 acetate buffer [5, 9] | log partition octanol / pH 4.0 acetate buffer (not told) [log10 concentration ratio] | Half-life, Buffer [6, 10] [min] | Cw, solubility at pH 4.0 acetate buffer [7, 10] [mg/ml] | log K, octanol/pH 4.0 acetate buffer [5, 11] | Half-life, Buffer ([6]; Buur et al (1984)) [min] | Half-life, 80% Plasma ([8]; Buur et al (1984)) [min] | Cw, solubility at pH 4.0 acetate buffer ([7]; Buur et al (1984)) [mg/ml] | Half-life, 80% Plasma [8, 10] [min]
CCCC(=O)n1c(=O)[nH]cc(F)c1=O [Compound 15] | 2.89 equivalent mg of 5FU/ml | 4440 (≈ 22.2 mM) | 0.97 |  |  | 0.204 | 0.97 |  | 0.67 |  |  | 0.67 | 58 | 28 |  | 
CCC(=O)n1c(=O)[nH]cc(F)c1=O [Compound 14] | 1.83 equivalent mg of 5FU/ml | 2620 (≈ 14.1 mM) | 0.088 |  |  | 0.318 | 0.088 |  | 0.19 |  |  | 0.19 | 50 | 20 | 35.3 | 
CCOC(=O)n1cc(F)c(=O)[nH]c1=O [Compound 8] | 1.70 equivalent mg of 5FU/ml | 2640 (≈ 13.1 mM) | 0.0757 | 0.770 | 2.38 | 0.357 | 0.0757 | -0.17 | -0.17 | 550 | 6.9 |  |  |  |  | 2.1
